Patent publication US8119681B2, “2-[1-phenyl-5-hydroxy or methoxy-4alpha-methyl-hexahydrocyclopenta [ƒ]indazole-5-YL]ethyl phenyl derivatives as glucocorticoid receptor ligands” (Merck Sharp & Dohme Corp., priority 2006, dated 2012)

Each compound was assayed against T1, glucocorticoid receptor (GR) (Homo sapiens, UniProt P04150) (assay: Ligand binding assay (GR BIND), 3H-dexamethasone displacement, HeLa cell lysate). Settings: Table 1; HeLa cell lysate, 3H-DEX.
T1 construct: endogenous in cells; host or cells: HeLa (ATCC) cell lysate supernatant
T1 sequence (P04150 1-777): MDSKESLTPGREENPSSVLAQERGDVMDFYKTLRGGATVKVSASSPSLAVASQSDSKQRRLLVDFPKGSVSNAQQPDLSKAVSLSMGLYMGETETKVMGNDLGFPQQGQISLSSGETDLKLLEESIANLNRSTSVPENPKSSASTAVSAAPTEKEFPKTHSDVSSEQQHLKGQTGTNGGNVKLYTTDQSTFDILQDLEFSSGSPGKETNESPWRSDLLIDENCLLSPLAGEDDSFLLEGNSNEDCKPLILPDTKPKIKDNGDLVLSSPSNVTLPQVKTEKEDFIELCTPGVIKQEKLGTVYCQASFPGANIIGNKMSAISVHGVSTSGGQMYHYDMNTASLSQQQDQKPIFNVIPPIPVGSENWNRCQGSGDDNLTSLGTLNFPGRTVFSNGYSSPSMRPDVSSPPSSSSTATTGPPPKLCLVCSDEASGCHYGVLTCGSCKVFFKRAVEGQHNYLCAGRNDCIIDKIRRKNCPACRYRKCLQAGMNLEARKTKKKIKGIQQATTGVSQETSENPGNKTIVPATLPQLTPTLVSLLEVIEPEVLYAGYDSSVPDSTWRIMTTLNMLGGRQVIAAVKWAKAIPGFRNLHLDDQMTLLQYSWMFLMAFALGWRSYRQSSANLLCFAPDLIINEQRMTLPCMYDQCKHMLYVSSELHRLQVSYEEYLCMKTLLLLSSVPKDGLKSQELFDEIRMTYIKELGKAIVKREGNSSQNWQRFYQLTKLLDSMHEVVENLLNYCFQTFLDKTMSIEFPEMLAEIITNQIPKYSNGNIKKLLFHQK
Protocol: Binding Buffer: TEGM (10 mM Tris-HCl, 1 mM EDTA, 10% glycerol, 1 mM beta-mercaptoethanol, 10 mM Sodium Molybdate, pH 7.2)
50% HAP Slurry: Calbiochem Hydroxylapatite, Fast Flow, in 10 mM Tris, pH 8.0 and 1 mM EDTA.
Wash Buffer: 40 mM Tris, pH7.5, 100 mM KCl, 1 mM EDTA and 1 mM EGTA.
Dexmethasone-methyl-^3H, (DEX*); (Amersham cat# TRK645)
Dexamethasone (DEX) (Sigma, cat# D1756):
Phenol red-free Trypsin-EDTA is diluted in the same PBS 1:10. The cell layers are rinsed with 1× Trypsin, extra Trypsin is poured out, and the cell layers are incubated at 37° C. for ˜2 min. The flask is tapped and checked for signs of cell detachment. Once the cells begin to slide off the flask, the complete media is added. The cells are counted at this point, then diluted to the appropriate concentration and split into flasks or dishes for further culturing (Usually 1:3 to 1:6 dilution).
Preparation of Hela Cell Lysate
The cell pellet is washed twice with TEGM (10 mM Tris-HCl, 1 mM EDTA, 10% glycerol, 1 mM beta-mercaptoethanol, 10 mM Sodium Molybdate, pH 7.2). After the final wash, the cells are resuspended in TEGM at a concentration of 10^7 cells/mL. The cell suspension is snap frozen in liquid nitrogen or ethanol/dry ice bath and transferred to −80° C. freezer on dry ice. Before setting up the binding assay, the frozen samples are left on ice-water to just thaw (˜1 hr). Then the samples are centrifuged at 12,500 g to 20,000 g for 30 min at 4° C. The supernatant is used to set-up assay right away. If using 50 μL of supernatant, the test compound can be prepared in 50 μL of the TEGM buffer.
Procedure for Multiple Compound Screening
1×TEGM buffer is prepared, and the isotope-containing assay mixture is prepared in the following order: EtOH (2% final concentration in reaction), 3H-DEX (Amersham Biosciences) and 1×TEGM. [e.g. For 100 samples, 200 μL (100×2) of EtOH+4.25 μL of 1:10 ^3H-Dex stock+2300 μL (100×23) 1×TEGM]. The compound is serially diluted, e.g., if starting final conc. is 1 μM, and the compound is in 25 μL of solution, for duplicate samples, 75 μL of 4×1 μM solution is made and 3 μL of 100 μM is added to 72 μL of buffer, and 1:5 serial dilution.
25 μL of ^3H-DEX (6 nM) trace and 25 μL compound solution are first mixed together, followed by addition of 50 μL receptor solution. The reaction is gently mixed, spun briefly at about 200 rpm and incubated at 4° C. overnight. 100 μL of 50% HAP slurry is prepared and added to the incubated reaction which is then vortexed and incubated on ice for 5 to 10 minutes. The reaction mixture is vortexed twice more to resuspend HAP while incubating reaction. The samples in 96-well format are then washed in wash buffer using The FilterMate™ Universal Harvester plate washer (Packard). The washing process transfers HAP pellet containing ligand-bound expressed receptor to Unifilter-96 GF/B filter plate (Packard). The HAP pellet on the filter plate is incubated with 50 μL of MICROSCINT (Packard) scintillant for 30 minutes before being counted on the TopCount microscintillation counter (Packard). IC50s are calculated using DEX as a reference.
Work on `CC(C)(C)NC(=O)c1c(F)cccc1CC[C@]1(O)CCC2=Cc3c(cnn3-c3ccc(F)cc3)C[C@@]21C` [Example 59, N-(tert-butyl)-2-fluoro-6-{2-[(4αS,5R)-1-(4-fluorophenyl)-5-hydroxy-4α-methyl-1,4,4α,5,6,7-hexahydrocyclopenta[f]indazol-5-yl]ethyl}benzamide] yielded a Ki of 1.83 nM.
Work on `CC(C)CNC(=O)c1c(F)cccc1CC[C@]1(O)CCC2=Cc3c(cnn3-c3ccc(F)cc3)C[C@@]21C` [Example 61, 2-fluoro-6-{2-[(4αS,5R)-1-(4-fluorophenyl)-5-hydroxy-4α-methyl-1,4,4α,5,6,7-hexahydrocyclopenta[f]indazol-5-yl]ethyl}-N-isobutylbenzamide] yielded a Ki of 0.58 nM.
With `CC(C)(C)NC(=O)c1ccccc1CC[C@]1(O)CCC2=Cc3c(cnn3-c3ccc(F)cc3)C[C@@]21C` [Example 62, N-(tert-butyl)-2-{2-[(4αS,5R)-1-(4-fluorophenyl)-5-hydroxy-4α-methyl-1,4,4α,5,6,7-hexahydrocyclopenta[f]indazol-5-yl]ethyl}benzamide] the Ki was 9.58 nM.
With `CC(C)S(=O)(=O)NCc1c(F)cccc1CC[C@]1(O)CCC2=Cc3c(cnn3-c3ccc(F)cc3)C[C@@]21C` [Example 83, N-(2-fluoro-6-{2-[(4αS,5R)-1-(4-fluorophenyl)-5-hydroxy-4α-methyl-1,4,4α,5,6,7-hexahydrocyclopenta[f]indazol-5-yl]ethyl}benzyl)propane-2-sulfonamide] the Ki was 0.56 nM.
With `CCS(=O)(=O)NCc1c(F)cccc1CC[C@]1(O)CCC2=Cc3c(cnn3-c3ccc(F)cc3)C[C@@]21C` [Example 84, N-(2-fluoro-6-{2-[(4αS,5R)-1-(4-fluorophenyl)-5-hydroxy-4α-methyl-1,4,4α,5,6,7-hexahydrocyclopenta[f]indazol-5-yl]ethyl}benzyl)ethanesulfonamide] the Ki was 0.62 nM.
`C[C@]12Cc3cnn(-c4ccc(F)cc4)c3C=C1CC[C@@]2(O)CCc1cccc(F)c1CNS(=O)(=O)C(Cl)Cl` [Example 85, 1,1-dichloro-N-(2-fluoro-6-{2-[(4αS,5R)-1-(4-fluorophenyl)-5-hydroxy-4α-methyl-1,4,4α,5,6,7-hexahydrocyclopenta[f]indazol-5-yl]ethyl}benzyl)methanesulfonamide] gave a Ki of 0.31 nM.
In the case of `C[C@]12Cc3cnn(-c4ccc(F)cc4)c3C=C1CC[C@@]2(O)CCc1cccc(F)c1CNS(=O)(=O)CC(F)(F)F` [Example 86, 2,2,2-trifluoro-N-(2-fluoro-6-{2-[(4αS,5R)-1-(4-fluorophenyl)-5-hydroxy-4α-methyl-1,4,4α,5,6,7-hexahydrocyclopenta[f]indazol-5-yl]ethyl}benzyl)ethanesulfonamide], the Ki is reported as 0.51 nM.
`C[C@]12Cc3cnn(-c4ccc(F)cc4)c3C=C1CC[C@@]2(O)CCc1cccc(F)c1CNS(=O)(=O)C1CC1` [Example 88, N-(2-fluoro-6-{2-[(4αS,5R)-1-(4-fluorophenyl)-5-hydroxy-4α-methyl-1,4,4α,5,6,7-hexahydrocyclopenta[f]indazol-5-yl]ethyl}benzyl)cyclopropanesulfonamide] showed a Ki of 0.57 nM.
For `CN(C)S(=O)(=O)NCc1c(F)cccc1CC[C@]1(O)CCC2=Cc3c(cnn3-c3ccc(F)cc3)C[C@@]21C` [Example 89, N′-(2-fluoro-6-{2-[(4αS,5R)-1-(4-fluorophenyl)-5-hydroxy-4α-methyl-1,4,4α,5,6,7-hexahydrocyclopenta[f]indazol-5-yl]ethyl}benzyl)-N,N-dimethylsulfamide], the Ki was 0.4 nM.
`C[C@]12Cc3cnn(-c4ccc(F)cc4)c3C=C1CC[C@@]2(O)CCc1ccccc1C1(NS(=O)(=O)C2CC2)CC1` [Example 91, N-[1-(2-{2-[(4αS,5R)-1-(4-fluorophenyl)-5-hydroxy-4α-methyl-1,4,4α,5,6,7-hexahydrocyclopenta[f]indazol-5-yl]ethyl}phenyl)cyclopropyl]cyclopropanesulfonamide] showed a Ki of 0.26 nM.

Same assay, conditions: Table 2; prior-art comparison compounds
In the case of `C[C@]12Cc3cnn(-c4ccc(F)cc4)c3C=C1CC[C@@]2(O)CCc1ccccc1F` [Example 70 WO 2004/075840 A2, reference compound], the Ki is reported as 2.95 nM.
